This note sets out measurements from patent US20040152710A1, “Use of norepinephrine reuptake modulators for preventing and treating vasomotor symptoms” (priority 2002, published 2004).

Assay [1] relates to tail skin temperature of ovariectomized rats. As to the kind of experiment: OVX-induced thermoregulatory dysfunction telemetry model.
Method: (§1) Dosing: All doses were prepared based on mg/kg.
(§2) Animals: Ovariectomized Sprague-Dawley rats (180-220 g) were obtained from a commercial vendor (Taconic, Germantown, N.Y.) and individually housed under 12 hours light/dark cycle in a room maintained at 25° C. Animals were provided with standard rat chow and water ad libitum.
A temperature and physical activity transmitter (PhysioTel TA10TA-F40, Data Sciences International) was implanted subcutaneously in the dorsal scapular region and the tip of the temperature probe was tunneled subcutaneously 2.5 cm beyond the base of the tail. After a 7-day recovery period, TST readings were continuously recorded for the remainder of the study. Tail skin temperature readings were collected from each animal every 5 minutes with values obtained over a 10 second sampling period. The day before test day, an average baseline TST value was calculated for each animal by averaging temperature readings recorded during the 12 hours active (dark) phase. In these studies, animals were dosed approximately 1 hour prior to the onset of dark cycle.
Evaluation of a compound's ability to restore normal lowering of TST in the telemetry model was analyzed using hourly TST values calculated for each animal by averaging the 12 temperature readings obtained every 5 minutes over that recording time. To analyze ΔTST in the telemetry model, a two factors repeated measure ANOVA was performed. The model used for analysis was ΔTST=GRP (group)+HR (hours)+GRP*HR+BASELINE. Thus, the reported least squares means are the expected mean values as if both groups had the same baseline value. Post-hoc tests of hourly GRP*HR samples are t-tests of the difference between groups for each hour. To be conservative, a result was not considered significant unless the p-value was <0.025. All analyses were performed using SAS PROC MIXED (SAS, Carey, N.C.).
In assay [2] the test system is naloxone-induced flush in morphine-dependent ovariectomized rats. The experiment in a line: Morphine-dependent rat model of hot flush (naloxone-induced flush, MD model).
Method: as §1, §2
Morphine-dependent model: Ovariectomized rats were injected once daily for 8-9 days with vehicle to minimize stress responses and then administered compound(s) on test day. On day 4 of dosing, morphine dependence was induced by sc implantation of two slow-release morphine pellets (75 mg/pellet) in the dorsal scapular region. […] Four to six days after implantation, morphine withdrawal was induced with an opioid antagonist (naloxone) that causes a transient increase in TST. […] Rats were mildly sedated with ketamine and a thermistor connected to a MacLab data acquisition system was taped to the base of the tail. Tail skin temperature was then monitored continuously for 35 minutes to establish a baseline temperature. Naloxone was subsequently administered and TST was measured for an additional 35 to 60 minutes (total recording time 70 to 95 minutes).
Statistical analysis: To analyze changes in TST induced by naloxone in morphine-dependent rats, all data were analyzed using a two factor repeated measure ANOVA for “treatment” and “time.” The model was fit to test whether there were significant differences in the responses between treatment groups. Naloxone administration is designated as time zero and data is then analyzed at 5 minute intervals. The first three readings were averaged and used as baseline TST scores. All data were analyzed as ΔTST (TST for each time point-baseline). Multiple comparisons (LSD p-values) among the treatment groups at each time point were used for the analysis. Efficacy of hot flush abatement was determined by evaluating statistical differences at the peak response time of 15 minutes post-nalbxone, when the maximal change in TST is observed. A customized SAS-excel (SAS Institute, Cary, N.C.) application was used applying a four parameter logistic model to determine ED50 values. A logistic dose transformation was performed on ΔTST. Maximum flush (ΔTST at 15 minutes post-naloxone) was used in the analysis and the minimum was locked at zero. […] Statisticians in the Biometrics Department (Wyeth Research, Collegeville, Pa.) developed a customized JMP application.

Turning to `CNCCCN1c2ccccc2CCc2ccccc21` [desipramine], the “changes in TST over time” value in assay [1] (10 mg/kg sc) is on record as “significantly decreases TST over the entire length of the active phase”. For the same molecule, the “abatement of naloxone-induced flush, alone” value in assay [2] (1 mg/kg sc, 40 minutes prior to naloxone) is listed as “approximately 50%”. In addition, the hot flush abatement in assay [2] (3 mg/kg desipramine co-administered with 10 mg/kg SRI) stood at 100%. The “abatement of naloxone-induced hot flush” value in assay [2] (10 mg/kg sc) is reported as 90.4%; in assay [2] (30 mg/kg sc) it was 96.7%. In assay [2] (co-administered fluoxetine 10 mg/kg sc), the “ED50 value of desipramine in the presence of fluoxetine” value was “did not change”. Besides, the “abatement of naloxone-induced flush in combination with atipamezole” value in assay [2] (desipramine 1 mg/kg with atipamezole 0.3 mg/kg, sc) is “additive effect”. The “abatement of naloxone-induced hot flush when SRI co-administered” value in assay [2] (desipramine 10 mg/kg with fluoxetine 10 mg/kg) was “significantly enhanced abatement of naloxone-induced hot flush”. Moreover, the “reduction of TST compared to vehicle treated rats” value in assay [2] (low dose, naloxone-induced hot flush) was 50%. Besides, the “effect on naloxone-induced flush at maximal flush (dose response)” value in assay [2] (sc, 1 hour prior to naloxone, 15 minutes post-naloxone) is on record as “dose-dependently abates the naloxone-induced flush”.
Regarding `COc1ccc(C(CN(C)C)C2(O)CCCCC2)cc1` (stereo not shown) [venlafaxine], the “changes in TST over time” value in assay [1] (15 mg/kg sc) was “significantly and transiently decreased TST during the active phase”. The ED50 in assay [2] (Rattus norvegicus, sc, read-out: ED50 value, abatement of naloxone-induced flush) turned out to be 15 mg/kg. In assay [2] (adrenergic α2 receptor antagonist atipamezole given), the “effect on elevated naloxone-dependent hot flush induced by atipamezole” value is reported as “able to alleviate”.
